Source: ChEMBL document CHEMBL5727820, “Substituted carbonucleoside derivatives useful as anticancer agents” (2020)
Values joined by “and” are separate entries in the source; they are usually repeats but may differ in a detail not shown here. Equal entries are not always repeated.

Assay: Biochemical Assay: Compounds were solubilized in DMSO and serially diluted, using 3-fold dilutions, into 100% DMSO at a concentration 50-fold greater than the desired assay concentration. Following dilution, 1 ul was added to an empty 96-well microtiter plate. PRMT5/MEP50 protein complex was combined with H4(1-21) peptide ([…]) in PRMT5 assay buffer (50 mM Tris pH 8.5, 50 mM NaCl, 5 mM MgCl2, 1 mM EDTA, 1 mM TCEP) and 44 ul was added to the microtiter plate containing compound. S-Adenosyl-L-methionine (SAM) was prepared by combining 3H labelled SAM with unlabelled SAM in PRMT5 assay buffer such that the final SAM concentration was 10 uM and the specific activity was 0.2 uCi/ul. The reaction was initiated by adding 5 ul of SAM stock to the microtiter plate. The final reaction conditions were 10 nM PRMT5/MEP50 complex, 200 nM peptide and 1 uM SAM. Following a 25 minute incubation at room temperature, the reaction was stopped with the addition of 100 uL of 20% TCA. The 3H-peptide product was captured using a 96-well filter plate (MSIPN4B, Millipore) and washed 5 times with PBS buffer. Scintillation fluid (100 ul) was added to the dried filter plate and counted in a liquid scintillation counter. IC50 values were determined by fitting the data to the standard 4-parameter dose response equation using Pfizer proprietary software.

Compared with CN(c1ccncn1)[C@@H]1C[C@@H]([C@H](O)c2ccc(F)c(F)c2)[C@@H](O)[C@H]1O, CN(c1ccncn1)[C@@H]1C[C@H]([C@@H](O)c2ccc(F)c(F)c2)[C@@H](O)[C@H]1O is 34-fold lower in IC50: 15700 nM for the first, 466 nM for the second.

First: CO[C@H]1C[C@H](n2ccc3c(C)ncnc32)[C@H](O)[C@@H]1O
Second: CO[C@@H]1C[C@H](n2ccc3c(C)ncnc32)[C@H](O)[C@@H]1O
The IC50 of the first is 2.7-fold higher: 5740 nM for the first, 2120 nM for the second. The second is the more potent here.

Going from Nc1ncnc2c1ccn2[C@@H]1C[C@@H]([C@H](O)c2ccc(Cl)c(F)c2)[C@@H](O)[C@H]1O to Nc1ncnc2c1ccn2[C@@H]1C[C@H]([C@@H](O)c2ccc(Cl)c(F)c2)[C@@H](O)[C@H]1O, the IC50 rises from 71 nM to 572 nM (8.1-fold). The first is the more potent here.

Compared with Cc1nccc(N[C@@H]2C[C@H]([C@H](O)c3ccc(F)c(F)c3)[C@@H](O)[C@H]2O)n1, Cc1cc(N[C@@H]2C[C@H]([C@@H](O)c3ccc(F)c(F)c3)[C@@H](O)[C@H]2O)ncn1 is 400-fold higher in IC50: 150 nM for the first, 59500 nM for the second. The first is the more potent here.

Compared with Cc1cn([C@@H]2C[C@H](Oc3ccc(F)c4c3CNCC4)[C@@H](O)[C@H]2O)c2ncnc(Cl)c12, O[C@@H]1[C@H](O)[C@@H](Oc2cccc3c2CNCC3)C[C@H]1n1cc(F)c2c(Cl)ncnc21 is 2-fold higher in IC50: 1 nM for the first, 2 nM for the second. The first is the more potent here.

Compared with Cc1cccc(CC(O)[C@H]2C[C@@H](n3ccc4c(C)ncnc43)[C@H](O)[C@@H]2O)n1 (some centres not stated), Cc1ncnc2c1ccn2[C@@H]1C[C@H]([C@@H](O)c2ccc(F)cc2)[C@@H](O)[C@H]1O is lower in IC50: over 200000 nM for the first, 289 nM for the second. The second is the more potent here.

Cc1cc(N[C@H]2C[C@@H](Oc3ccccc3C#N)[C@H](O)[C@@H]2O)ncn1 and Cc1cc(N[C@@H]2C[C@H](Oc3ccccc3C#N)[C@@H](O)[C@H]2O)ncn1 cannot be ordered by IC50: over 200000 nM for the first, over 200000 nM for the second.

Cc1ncnc2c1ccn2[C@@H]1C[C@H]([C@](F)(CN)c2ccc(F)cc2)[C@@H](O)[C@H]1O and Cc1ncnc2c1ccn2[C@@H]1CC([C@](C)(O)c2ccc(F)cc2)[C@@H](O)[C@H]1O (some centres not stated) are within 1.5-fold of each other in IC50: 18900 nM for the first, 17100 nM for the second.

Going from Cc1ncnc(N(C)[C@@H]2C[C@@H]([C@H](O)c3ccc(F)c(F)c3)[C@@H](O)[C@H]2O)n1 to Cc1ncnc(N(C)[C@@H]2C[C@H]([C@@H](O)c3ccc(F)c(F)c3)[C@@H](O)[C@H]2O)n1, the IC50 falls from 29500 nM to 297 nM (99-fold).

Going from CN(c1ncnc(N)n1)[C@@H]1C[C@H]([C@@H](O)c2ccc(F)c(F)c2)[C@@H](O)[C@H]1O to CN(c1ncnc(N)n1)[C@@H]1C[C@@H]([C@H](O)c2ccc(F)c(F)c2)[C@@H](O)[C@H]1O, the IC50 rises from 266 nM to 15700 nM (59-fold). The first is the more potent here.

First: Cc1ncnc2c1ccn2[C@@H]1C[C@H](Oc2ccccc2CN)[C@@H](O)[C@H]1O
Second: Cc1ncnc2c1ccn2[C@H]1C[C@@H](Oc2ccccc2CN)[C@H](O)[C@@H]1O
The IC50 of the first is 42-fold higher: 1060 nM for the first, 25 nM for the second. The second is the more potent here.

Compared with Cc1nc(N)nc2c1ccn2[C@@H]1C[C@H]([C@@H](O)c2ccc(F)c(F)c2)[C@@H](O)[C@H]1O, Cc1nc(N)nc2c1ccn2[C@@H]1C[C@@H]([C@H](O)c2ccc(F)c(F)c2)[C@@H](O)[C@H]1O is 21-fold higher in IC50: 5 nM for the first, 105 nM for the second.

Cc1cc(N[C@@H]2C[C@H](Oc3ccc(F)cc3C#N)[C@@H](O)[C@H]2O)ncn1 and Cc1cc(N[C@H]2C[C@@H](Oc3ccc(F)cc3C#N)[C@H](O)[C@@H]2O)ncn1 cannot be ordered by IC50: over 200000 nM for the first, over 200000 nM for the second.

Going from Cc1ncnc2c1ccn2[C@@H]1C[C@H](Oc2ccc(F)cc2[C@H](C)N)[C@@H](O)[C@H]1O to Cc1ncnc2c1ccn2[C@@H]1C[C@H](Oc2ccc(F)cc2[C@@H](C)N)[C@@H](O)[C@H]1O, the IC50 falls from 123 nM to 2 nM (62-fold). The second is the more potent here.

Cc1nc(N)c2c(C)cn([C@@H]3C[C@H](Oc4cc(F)c(F)c5c4CNCC5)[C@@H](O)[C@H]3O)c2n1 and Cc1ncnc2c1ccn2C1C[C@H](Oc2cccc3c2CNCC3)[C@@H](O)[C@H]1O (some centres not stated) are the same in IC50: 1 nM for the first, 1 nM for the second.

First: O[C@@H]1[C@H](O)[C@@H]([C@@H](O)c2ccc(F)c(F)c2)C[C@H]1Nc1ncnc2[nH]ccc12
Second: O[C@@H]1[C@H](O)[C@H]([C@H](O)c2ccc(F)c(F)c2)C[C@H]1Nc1ncnc2[nH]ccc12
The IC50 of the first is 13-fold lower: 449 nM for the first, 5770 nM for the second. The first is the more potent here.

First: Cc1ncnc2c1ccn2[C@@H]1C[C@H]([C@H](F)c2ccc(F)cc2)[C@@H](O)[C@H]1O
Second: Cc1ncnc2c1ccn2[C@@H]1C[C@H]([C@@H](F)c2ccc(F)cc2)[C@@H](O)[C@H]1O
The IC50 of the first is 72-fold higher: 217 nM for the first, 3 nM for the second.

Compared with CN(c1cc(N)ncn1)[C@@H]1C[C@H]([C@@H](O)c2ccc(F)c(F)c2)[C@@H](O)[C@H]1O, CN(c1cc(N)ncn1)[C@@H]1C[C@@H]([C@H](O)c2ccc(F)c(F)c2)[C@@H](O)[C@H]1O is 19-fold higher in IC50: 879 nM for the first, 17000 nM for the second. The first is the more potent here.

Going from Cc1ncnc2c1ccn2[C@@H]1C[C@H](Oc2cc(C(F)F)c(F)c3c2CNCC3)C(O)=C1O to Cc1ncnc2c1ccn2[C@@H]1C[C@H](Oc2ccc(F)c3c2CNC[C@@H]3C)[C@@H](O)[C@H]1O, the IC50 rises from 1 nM to 2 nM (2-fold). The first is the more potent here.

Going from Cc1cc(N[C@@H]2C[C@H]([C@H](O)c3ccc(F)c(F)c3)[C@@H](O)[C@H]2O)ncn1 to N#Cc1cccc2c(N[C@@H]3C[C@H](C(O)c4ccc(F)c(F)c4)[C@@H](O)[C@H]3O)ncnc12 (some centres not stated), the IC50 rises from 3580 nM to over 200000 nM. The first is the more potent here.

Cc1ncnc2c1ccn2[C@@H]1C[C@@H]([C@H](CN)c2ccc(F)cc2)[C@@H](O)[C@H]1O and Cc1ncnc2c1ccn2[C@@H]1C[C@H]([C@@H](CN)c2ccc(F)cc2)[C@@H](O)[C@H]1O are within 1.5-fold of each other in IC50: 906 nM for the first, 676 nM for the second.

Compared with Cc1ncnc2c1ccn2[C@@H]1C[C@H](Oc2ccc(F)c3c2CNC[C@H]3C)[C@@H](O)[C@H]1O, COC(=O)c1cc(F)ccc1O[C@H]1C[C@@H](n2ccc3c(C)ncnc32)[C@H](O)[C@@H]1O is 10000-fold higher in IC50: 1 nM for the first, 10200 nM for the second. The first is the more potent here.

Going from Cc1ncnc2c1ccn2[C@@H]1CC([C@@](C)(O)c2ccc(F)cc2)[C@@H](O)[C@H]1O (some centres not stated) to N#Cc1cccc2c(N[C@H]3C[C@H](C(O)c4ccc(F)c(F)c4)[C@@H](O)[C@H]3O)ncnc12 (some centres not stated), the IC50 rises from 64 nM to over 200000 nM.

In the case of Nc1ncnc2c1c(F)cn2[C@@H]1C[C@H](Oc2cccc3c2CNCC3)[C@@H](O)[C@H]1O, the IC50 is reported as 8 nM and 28 nM.
